Data set [1] concerns nasal airway epithelium. Briefly: LV-mediated LacZ gene transfer into mouse nasal airway (X-gal, count of LacZ positive cells). It counts as in vivo, C57B1/6 mice. Conditions: for LacZ positive cells ± SEM: 3 standard cross-sections, n=3.
Data set [2] deals with freshly-excised mouse nasal airway epithelium. The note with it: unpublished data.
For data set [3], the system named is CFTR-mediated chloride secretion. Description: Nasal TPD/ΔPD measurement of CFTR function after LVCFTR dosing. It counts as in vivo. The note with it: homozygote cftr^tmlUnc mice, 1% LPC 1 h prior to PBS (control) instillation; 7 days later. Here is the method: C57B1/6 and cftr^tmlUnc mice (Snouwaert et al., 1992) were used under the approval of both the Women's and Children's Hospital and the University of Adelaide Animal Ethics Committees. C57B1/6 mice (6-7 weeks of age), or cftr^tmlUnc mice (8-20 weeks of age) were anaesthetised intramuscularly with 1 μl/g and 0.7 μl/g body weight respectively of a 3:2 mixture of xylazil (20 mg/ml):ketamine (100 mg/ml) respectively. Body temperature was maintained during anaesthesia with a heat pad, or heat lamp and during the recovery period the mice were placed in a 35° C. air chamber. For dosing, mice were suspended from their dorsal incisors (hindquarters supported) and pre-treatment solutions (4 μl of LPC (Sigma L-4129), or polidocanol (Sigma P-9641), prepared as w/v solutions in PBS) delivered as a bolus into the right nostril using a gel-loading tip (Finnpippette). […] The mice were monitored for respiratory distress and any loss of treatment solution was noted. […]
CFTR gene expression: Mice were anaesthetised, suspended from their dorsal incisors (hindquarters supported) and a subcutaneous needle-agar bridge (as reference electrode) was placed in the abdomen. […] TPD values were measured (blinded) from chart paper recordings, and the ΔPD value was calculated by subtracting the TPD value recorded under basal conditions from the TPD value measured under low-chloride conditions. […]

Data set [4] concerns nasal airway epithelium. Briefly: Histological injury after dosing with LPC alone. It counts as in vivo, mouse. The note with it: 1% LPC alone.
For data set [5], the system named is nasal airway surface epithelium. Briefly: Transepithelial potential difference (TPD) after penetrating agent, damage of epithelia. It counts as in vivo, mice. The note with it: for recovery of TDP function: longer time course, FIG. 11. From the text:
The method of choice for assessing an appropriate level of damage is by the measurement of transepithelial potential difference (TDP) (Middleton et al., 1994; Knowles et al., 1995; Lee et al., 1999). In general, damage to epithelium with penetrating agents cause at least opening of the tight junctions and this causes the resident negative TPD on the airway surface to go toward zero. If there is exfoliation (that is substantial damage) then the TPD goes to zero quickly and takes several days to return to normal because the epithelia cells have been stripped off and have to regenerate.
Measurement of TPD was performed under zero-chloride perfusion to give a larger baseline TPD value from which to measure change. Under these conditions the values are typically around −20 mV compared to about −5 mV if normal perfusion saline is used. Mice are anaesthetised, TPD cannula is inserted, then the detergent dose is instilled in the same nostril, the effect is then followed in this anterior part of the nose. The methods used for measuring TDP are largely as described in Parsons et al., 1998. For method for use in human see Middleton et al., 1994 and Knowles et al., 1995.
The dosage of detergent used is 4 μl of PBS, PDOC of LPC and is in line with methods used in the above examples. The solutions of detergent use are 0.01, 0.1 and 1.0%. The TDP value was determined 5 minutes after administration of the detergent. The values are presented graphically in FIG. 8. […] A score of 100% represents the pretest TDP value. […] A TDP value of less than about 60% is though to be preferable.
The same doses of LPC were used as for experiment 1 but TDP was measured at 2, 5 and 10 minutes after administration. The data are presented graphically in FIG. 9. […] Thus should 0.01% LPC be used for treatment of the lung then lentivirus should be delivered within 10 minutes.
This uses that same doses of PDOC as in experiment 1 and as in experiment 2 TDP was measured at 2, 5 and 10 minutes after administration. The data from this experiment are presented graphically in FIG. 10.
TDP was measured over a longer time course using PDOC as the penetrating agent. The doses used in this experiment were (per mouse) 10 μl of 1.0% PDOC, 4 μl of 1.0% PDOC and 4 μl of 0.1% PDOC. […] A recovery of TDP function within about 1 day is considered to be transient.

Data set [6] relates to nasal airway epithelium. Description: Adenoviral (AdlLacZ) LacZ gene transfer into mouse nasal airway after detergent pre-treatment. It counts as in vivo, mice. The note with it: 4 μl detergent (SDS 0.25%, ZWIT 0.14%, DEOXY 0.17%) 1 h before AdlLacZ 1×10^9 pfu; 3 days; FIG. 7. As for the experimental part: The detergents tested were Sodium n-dodecyl sulfate (SDS), (an anionic detergent) at 0.25%, Zwittergent 3-14: N-Tetradecylsulfobetaine (ZWIT) (a zwitterionic detergent) at 0.14%, Cetyltrimethylammonium bromide (CTAB) (an ionic detergent) at 0.15%, Deoxycholic Acid (DEOXY) (an ionic detergent) at 0.17%, with phosphate buffered saline as a control.
Detergents were made up fresh to nominated concentrations. A single 4 μl dose was used per mouse (all were approximately 20 gm body weight). An Adenoviral vector (AdlLacZ) dose of 1×10^9 pfu in 20 μl. Mice were anaesthetised with Xylamine/Ketamine i.m.; then suspended vertically (hanging on dorsal incisor teeth). The detergent dose was instilled into the nostril opening in one bolus via a micropipettor.
The mouse was set aside for one hour; re-anaesthetised as needed, 1 hour later 20 μl of viral vector was instilled into the same nostril. The mouse was allowed to recover and returned to caging. Three days later the mice were killed with CO2 excess, head removed and the nasal airways were flushed with fixative. These were taken through standard “X-gal” processing to reveal blue stained cells that represent LacZ gene transfer. Cells were processing to wax sections and stained with Safranin-O or haemotoxylin/oesin. Stained cells present along the perimeter of 3 standard cross-sections in the treated nasal airway were counted. […]

The next data set relates to MDCK. Briefly: Effect of detergent on viral gene transfer in vitro, polarised cells. It counts as cell-based. The note with it: AdV5CMVLacZ vector added 10, 30 and 60 mins following polidocanol treatment, P<0.05. Here is the method:
(§1) The effect of detergents (polidocanol and lysophospatidylcholine) on the level of viral gene transfer were firstly evaluated in vitro.
(§2) Initial experiments made use of the AdV5CMVLacZ vector (a generous gift from Dr. R. C. Boucher). […] This dose of polidocanol was assessed on polarised cells (MDCK) and also non-polarised cells (A549). The AdV vector was added at 10, 30 and 60 mins following treatment. […] When the experiments were repeated using the LV vector we found the same effect.

In the next data set the test system is A549. Briefly: Effect of detergent on viral gene transfer in vitro, non-polarised cells. It counts as cell-based. Conditions: AdV5CMVLacZ vector added 10, 30 and 60 mins following polidocanol treatment. Here is the method: as §1, §2
Where [7] appears, read: 0.1% pre-treatment (4 μl) 1 h before 20 μl LVLacZa (6×10^4 NIH3T3-TU), 7 days.
Setting [8] is: 1% pre-treatment (4 μl), then PBS instead of vector, 7 days.

Regarding lysophosphatidylcholine [LPC], the “LacZ positive cells ± SEM” value came to 4.3 ± 0.7 in the data set on nasal airway epithelium [1] (setting [7]) and 0.0 ± 0.0 in the data set on nasal airway epithelium [1] (setting [8]). The “increase in the level of LV-mediated transduction compared to pre-treatment with 1% polidocanol” value in the data set on nasal airway epithelium [1] (1% LPC pre-treatment, LVLacZa, 7 days) was 4 fold. The “effect on cilial beat” value in data set [2] is listed as “dose-dependant reversibility of reduction in cilial beat”. Besides, the ΔPD entry in data set [3] is on record as “+8±3.2 mV”. Also, the “histological injury observed immediately after dosing” value with nasal airway epithelium [4] is reported as “limited areas of deciliation or exfoliation found anteriorly close the dosed site”. Moreover, the “TPD relative to pretest TPD” value in data set [5] (4 μl of 0.01% LPC, after 10 minutes, FIG. 9) was “not significantly different to pretest TPD”.

As for `CCCCCCCCCCCCCC[N+](C)(C)CCCS(=O)(=O)[O-]` [Zwit, N-Tetradecylsulfobetaine], the “numbers of transductants over the control PBS, respiratory cells” value with nasal airway epithelium [6] is “considerable increase in numbers of transductants”.

Take polyoxyethylene 9-lauryl ether [PDOC]: the “gene transfer when vector added one hour after treatment compared to shorter time points” value with MDCK is “significantly improved”. Besides, the “level of gene transfer between vector instillation times” value with A549 is given as “no apparent difference”. Moreover, the “LacZ positive cells ± SEM” value with nasal airway epithelium [1] (setting [7]) stood at 2.7 ± 0.3; in the data set on nasal airway epithelium [1] (1% pre-treatment (4 μl) 1 h before 20 μl LVLacZa (6×10^4 NIH3T3-TU), polybrene-free, 7 days), 5.3 ± 1.3; in the data set on nasal airway epithelium [1] (setting [8]) it was 0.0 ± 0.0. Besides, the “effect on TDP value” in data set [5] (4 μl of 0.01, 0.1 and 1.0% solutions, 5 minutes after administration, FIG. 8) is reported as “greater effect on TDP value than LPC”. Also, the “recovery of TDP function” value in data set [5] (4 μl of 0.1% PDOC) was “rapidly recovers”; in data set [5] (10 μl of 1.0% PDOC and 4 μl of 1.0% PDOC (first two doses)), “extended”.

As to `CCCCCCCCCCCCOS(=O)(=O)[O-].[Na+]` [SDS, Sodium n-dodecyl sulfate], the “numbers of transductants over the control PBS, respiratory cells” value in the data set with nasal airway epithelium [6] is listed as “considerable increase in numbers of transductants”.

polybrene: the “number of LacZ positive cells” value in the data set with nasal airway epithelium [1] (1% LPC pre-treatment, LVLacZa vector preparation containing 4 μg/ml polybrene, 7 days) is reported as 5.0±1.0. Also, the “decrease in the number of LacZ positive cells on inclusion of polybrene in the LVLacZa preparation” value in the data set on nasal airway epithelium [1] (1% LPC pre-treatment, vs polybrene-free LVLacZa, P=0.002) is listed as 4 fold.
